According to article PMC9866191, “Novel 9-Benzylaminoacridine Derivatives as Dual Inhibitors of Phosphodiesterase 5 and Topoisomerase II for the Treatment of Colon Cancer” (Molecules, 2023):

Experiments:
RPMI-8226 = experiment: NCI-60 one-dose screen; assay type: cell-based; settings: Homo sapiens; RPMI-8226, Leukemia panel; single dose 10^−5 M; read-out: Growth inhibition %
NCI-H322M = experiment: NCI-60 one-dose screen; assay type: cell-based; settings: Homo sapiens, Non-small cell lung panel, single dose 10^−5 M, read-out: Growth inhibition %
UACC-62 = experiment: NCI-60 one-dose screen; assay type: cell-based; settings: Homo sapiens; UACC-62, Melanoma panel; single dose 10^−5 M; read-out: Growth inhibition %
SK-MEL-2 = experiment: NCI-60 one-dose screen; assay type: cell-based; settings: Homo sapiens; SK-MEL-2, Melanoma panel; single dose 10^−5 M; read-out: Growth inhibition %
SR = experiment: NCI-60 one-dose screen; assay type: cell-based; settings: Homo sapiens, Leukemia panel, single dose 10^−5 M, read-out: Growth inhibition %
NCI/ADR-RES = experiment: NCI-60 one-dose screen; assay type: cell-based; settings: Homo sapiens, Ovarian Cancer panel, single dose 10^−5 M, read-out: Growth inhibition %
TK-10 = experiment: NCI-60 one-dose screen; assay type: cell-based; settings: Homo sapiens; TK-10, Renal Cancer panel; single dose 10^−5 M; read-out: Growth inhibition %
PC-3 = experiment: NCI-60 one-dose screen; assay type: cell-based; settings: Homo sapiens; PC-3, Prostate Cancer panel; single dose 10^−5 M; read-out: Growth inhibition %
DU-145 = experiment: NCI-60 one-dose screen; assay type: cell-based; settings: Homo sapiens; DU-145, Prostate Cancer panel; single dose 10^−5 M; read-out: Growth inhibition %
SK-MEL-28 = experiment: NCI-60 one-dose screen; assay type: cell-based; settings: Homo sapiens; SK-MEL-28, Melanoma panel; single dose 10^−5 M; read-out: Growth inhibition %
MDA-MB-435 = experiment: NCI-60 one-dose screen; assay type: cell-based; settings: Homo sapiens; MDA-MB-435, Melanoma panel; single dose 10^−5 M; read-out: Growth inhibition %
HT29 = experiment: NCI-60 one-dose screen; assay type: cell-based; settings: Homo sapiens, HT-29; HT29, Colon Cancer panel; single dose 10^−5 M; read-out: Growth inhibition %
T-47D = experiment: NCI-60 one-dose screen; assay type: cell-based; settings: Homo sapiens, T47D, Breast Cancer panel, single dose 10^−5 M, read-out: Growth inhibition %
MDA-MB-468 = experiment: NCI-60 one-dose screen; assay type: cell-based; settings: Homo sapiens; MDA-MB-468, Breast Cancer panel; single dose 10^−5 M; read-out: Growth inhibition %
SF-295 = experiment: NCI-60 one-dose screen; assay type: cell-based; settings: Homo sapiens; SF-295, CNS Cancer panel; single dose 10^−5 M; read-out: Growth inhibition %
OVCAR-3 = experiment: NCI-60 one-dose screen; assay type: cell-based; settings: Homo sapiens; OVCAR-3, Ovarian Cancer panel; single dose 10^−5 M; read-out: Growth inhibition %
HL-60(TB) = experiment: NCI-60 one-dose screen; assay type: cell-based; settings: Homo sapiens, Leukemia panel, single dose 10^−5 M, read-out: Growth inhibition %
SNB-19 = experiment: NCI-60 one-dose screen; assay type: cell-based; settings: Homo sapiens; SNB-19, CNS Cancer panel; single dose 10^−5 M; read-out: Growth inhibition %
OVCAR-5 = experiment: NCI-60 one-dose screen; assay type: cell-based; settings: Homo sapiens; OVCAR-5, Ovarian Cancer panel; single dose 10^−5 M; read-out: Growth inhibition %
HCT-15 = experiment: NCI-60 one-dose screen; assay type: cell-based; settings: Homo sapiens; HCT-15, Colon Cancer panel; single dose 10^−5 M; read-out: Growth inhibition %
HS 578T = experiment: NCI-60 one-dose screen; assay type: cell-based; settings: Homo sapiens, Breast Cancer panel, single dose 10^−5 M, read-out: Growth inhibition %
KM12 = experiment: NCI-60 one-dose screen; assay type: cell-based; settings: Homo sapiens; KM12, Colon Cancer panel; single dose 10^−5 M; read-out: Growth inhibition %
786-0 = experiment: NCI-60 one-dose screen; assay type: cell-based; settings: Homo sapiens; 786-0, Renal Cancer panel; single dose 10^−5 M; read-out: Growth inhibition %
CAKI-1 = experiment: NCI-60 one-dose screen; assay type: cell-based; settings: Homo sapiens; CAKI-1, Renal Cancer panel; single dose 10^−5 M; read-out: Growth inhibition %
MCF7 = experiment: NCI-60 one-dose screen; assay type: cell-based; settings: Homo sapiens; MCF7, Breast Cancer panel; single dose 10^−5 M; read-out: Growth inhibition %
LOX IMVI = experiment: NCI-60 one-dose screen; assay type: cell-based; settings: Homo sapiens, Melanoma panel, single dose 10^−5 M, read-out: Growth inhibition %
CCRF-CEM = experiment: NCI-60 one-dose screen; assay type: cell-based; settings: Homo sapiens, Leukemia panel, single dose 10^−5 M, read-out: Growth inhibition %
IGROV1 = experiment: NCI-60 one-dose screen; assay type: cell-based; settings: Homo sapiens, IGROV-1; IGROV1, Ovarian Cancer panel; single dose 10^−5 M; read-out: Growth inhibition %
SF-268 = experiment: NCI-60 one-dose screen; assay type: cell-based; settings: Homo sapiens; SF-268, CNS Cancer panel; single dose 10^−5 M; read-out: Growth inhibition %
CCD-966SK = experiment: MTT cell proliferation assay, CCD-966SK; settings: CCD966SK skin fibroblast, 72 h MTT
Procedure: (§1) In the MTT assay, 96-well culture plates were used. A total of 7 × 10^4 cells per well were seeded, and test materials were added to the cells at various concentrations [47, 48]. Human cancer and non-cancer cell lines were purchased commercially from the American Type Culture Collection (ATCC). After 72 h, the cytotoxicity of the compounds and paclitaxel (as a positive control group) was detected using the MTT method (thiazolyl blue tetrazolium bromide, Sigma-M2128). Absorbance values at 570 and 620 nm (OD = OD570–OD620) were measured using an ELISA reader (Anthos Labtec Instruments, Salzburg, Austria).

HCT-116 = experiment: MTT cell proliferation assay, HCT-116
Procedure: as §1

| Structure (SMILES) | inhibition at 10 µM (RPMI-8226) [%] | inhibition at 10 µM (NCI-H322M) [%] | inhibition at 10 µM (UACC-62) [%] | inhibition at 10 µM (SK-MEL-2) [%] | inhibition at 10 µM (SR) [%] | inhibition at 10 µM (NCI/ADR-RES) [%] | inhibition at 10 µM (TK-10) [%] | inhibition at 10 µM (PC-3) [%] | inhibition at 10 µM (DU-145) [%] | inhibition at 10 µM (SK-MEL-28) [%] | inhibition at 10 µM (MDA-MB-435) [%] | inhibition at 10 µM (HT29) [%] | inhibition at 10 µM (T-47D) [%] | inhibition at 10 µM (MDA-MB-468) [%] | inhibition at 10 µM (SF-295) [%] | inhibition at 10 µM (OVCAR-3) [%] | inhibition at 10 µM (SNB-19) [%] | inhibition at 10 µM (OVCAR-5) [%] | inhibition at 10 µM (HCT-15) [%] | inhibition at 10 µM (HS 578T) [%] | also measured |
| --- | --- | --- | --- | --- | --- | --- | --- | --- | --- | --- | --- | --- | --- | --- | --- | --- | --- | --- | --- | --- | --- |
| COc1ccc(CNc2c3ccccc3nc3ccccc23)cc1OC [Compound 18, Acridin-9-yl-(3,4-dimethoxybenzyl)-amine] | 99.4 | 70.2 | 73.2 | 61.4 | 91.4 | 80.7 | 67.7 | 78 | 75.3 | 64.8 | 70.6 | 95.6 | 74.2 | 123 | 81.9 | 56.3 | 78.2 | 72.5 | 89.8 | 62.8 | inhibition at 10 µM (HL-60(TB)): 87.3%; inhibition at 10 µM (KM12): 68.4%; inhibition at 10 µM (786-0): 74.6%; inhibition at 10 µM (CAKI-1): 89.5%; inhibition at 10 µM (MCF7): 99.3%; inhibition at 10 µM (LOX IMVI): 104%; inhibition at 10 µM (CCRF-CEM): 69.5%; inhibition at 10 µM (IGROV1): 89.1%; inhibition at 10 µM (SF-268): 60.4%; % Inhibition at 10 µM (CCD-966SK): 32.27 ± 0.58% |
| COc1cccc(CNc2c3ccccc3nc3ccccc23)c1 [Compound 6, Acridin-9-yl-(3-methoxybenzyl)-amine] | 83.3 | 56 | 36.5 | 32.1 | 91.6 | 62.5 | 48.3 | 61.1 | 46.7 | 18.8 | 57 | 81.3 | 54.1 | 86.4 | 64 | 45.2 | 64 | 54.1 | 75.6 | 44.4 | inhibition at 10 µM (HL-60(TB)): 59.1%; inhibition at 10 µM (KM12): 64.1%; inhibition at 10 µM (786-0): 62.7%; inhibition at 10 µM (CAKI-1): 64.3%; inhibition at 10 µM (MCF7): 85.4%; inhibition at 10 µM (LOX IMVI): 80.2%; inhibition at 10 µM (CCRF-CEM): 69.8%; inhibition at 10 µM (IGROV1): 71.7%; inhibition at 10 µM (SF-268): 28.8%; % Inhibition at 10 µM (CCD-966SK): 54.31 ± 0.98% |
| Cc1ccc2nc3ccccc3c(NCc3ccc(Cl)cc3)c2c1 [Compound 31, (4-Chlorobenzyl)-(2-methyl-acridin-9-yl)-amine] | 128 | 44.1 | 26 | -1.95 | 109 | 58 | 17.6 | 60.9 | 48.6 | 24.5 | 29.7 | 94.7 | 42.1 | 122 | 56.3 | 29.1 | 49.7 | 49.3 | 85.5 | 22.2 | inhibition at 10 µM (KM12): 22.9%; inhibition at 10 µM (786-0): 65.3%; inhibition at 10 µM (CAKI-1): 54.3%; inhibition at 10 µM (MCF7): 121%; inhibition at 10 µM (LOX IMVI): 157%; inhibition at 10 µM (CCRF-CEM): 81.8%; % Inhibition at 10 µM (HCT-116; 10 µM, 72 h MTT, means ± SD): 55.53 ± 1.69%; IC50 (HCT-116; read-out: IC50 μM, 72 h MTT, means ± SD, three experiments): 7.95 ± 0.65 µM; inhibition at 10 µM (IGROV1): 72.9%; inhibition at 10 µM (SF-268): 20.9%; % Inhibition at 10 µM (CCD-966SK): 60.02 ± 3.07%; IC50 (CCD-966SK; read-out: IC50 μM): 4.96 ± 0.62 µM |
| COc1cccc(CNc2c3ccccc3nc3ccccc23)c1OC [Compound 16, Acridin-9-yl-(2,3-dimethoxybenzyl)-amine] | 83 | 58.4 | 48.7 | 20.8 | 82.5 | 66.8 | 40.5 | 62.4 | 58.2 | 33.9 | 53.7 | 85.6 | 52.5 | 98.9 | 67 | 34.9 | 64.5 | 57 | 80.2 | 35.7 | inhibition at 10 µM (KM12): 47.6%; inhibition at 10 µM (786-0): 61.2%; inhibition at 10 µM (CAKI-1): 66.3%; inhibition at 10 µM (MCF7): 89.9%; inhibition at 10 µM (LOX IMVI): 87%; inhibition at 10 µM (CCRF-CEM): 60.5%; inhibition at 10 µM (IGROV1): 76.8%; inhibition at 10 µM (SF-268): 38.3%; % Inhibition at 10 µM (CCD-966SK): 29.78 ± 2.20% |
